In patent US12129491B2, “Methods and compositions relating to lung cell differentiation” (CHILDREN'S MEDICAL CENTER CORPORATION, priority 2016, dated 2024):

Columns and labels:
Type in all cases: cell-based, mouse
[1] = test system: CK1750 and SC241 cell lines; test: Flow cytometry screen of adenocarcinoma cell lines for stem cell surface marker Sca-1 with a small molecule library
From the text: The X axis crosses at the level of Sca-1 fluorescence measured in cells with the vehicle only control (DMSO). Bars up thus represent an increase in Sca-1 and Bars down represent a decrease. Each bar represents a different chemical treatment.
The CK1750 and SC241 cell lines derived from K-ras; p53fl/fl mouse adenocarcinoma tumors are highly enriched for Sca-1 and CD24. These cell lines were screened for factors that alter the expression of Sca1, CD24 or both markers, using the Stem Cell Core's Pilot Known Bioactives library, a small molecule library enriched in inhibitors of chromatin regulators (FIG. 1).

[2] = test system: Sca-1−ve and Sca-1+ve sorted cells; test: Quantification of organoid morphologies from Sca-1 sorted cells
Method: (§1) Quantification and statistical analysis of organoid morphologies from cultures grown with UNC0638 or DMSO control. *=P<0.05, two tailed independent samples T-test
(§2) UNC0638 treatment reduces the proportion of Sca-1+ve alveolar organoids and increases the proportion of small, undifferentiated organoids. (FIG. 4) 250 nM UNC0638 reduces alveolar colony formation and increase ciliated organoid formation (FIG. 5).

BASC 3D co-culture = BASC 3D co-culture resorted by FACS for Sca-1 expressing cells; conditions: 3D cultures after 3 weeks growth, vs DMSO control (FIG. 2)
[3] = test system: AT2 (Alveolar Type 2) cultures; test: 3D organoid culture of AT2 cells: organoid formation; conditions: AT2 cultures (FIG. 3)
From the text: (§3) AT2 cells are only capable of producing alveolar morphological organoids (FIG. 3).

[4] = test system: BASC (Bronchioalveolar Stem Cell) cultures; test: 3D organoid culture of BASC: organoid morphology, lineage and staining
From the text: as §1
Graphs depicts quantification of organoid lineage proportions in UNC0638 and DMSO treated cultures. On the top graph bronchiolar and tracheobronichiolar organoids are counted separately. On the bottom graph these organoids are counted together. *=P<0.05, two tailed independent samples T-test
FIG. 6 depicts graphs of the quantification of PAS and Alcian Blue Stained Organoids in DMSO and UNC0638 treated Organoids.
as §3, §2
Organoids with visible movement are observed in control cultures, but are more frequent in 250 nM UNC0638 treated cultures. […] Some organoids in UNC0638 cultures (and some rare organoids in DMSO cultures) can be seen to be visibly moving. They have currents in their lumen causing material within to move around. […] Currents are always counter clockwise, consistent with direction of cilia.
Ciliated organoids have large amounts of material that stain for PAS and Alcian Blue, like mucus produced by goblet cells in the lung upper airways. This material is likely what can be seen to revolve in the organoids with interior lumen currents. G9a/G1p inhibition increases the proportion and overall number of PAS/Alcian Blue Staining Organoids (FIG. 6). PAS stained cells resemble goblet cells that produce mucus in the upper airway. […] This is precisely the same as the lung upper airways which have a lower layer of p63+ Keratin 5+ stem cells known as basal cells.

COc1cc2c(NC3CCN(C(C)C)CC3)nc(C3CCCCC3)nc2cc1OCCCN1CCCC1 [UNC0638]
change in Sca-1 on the cell surface ([1]; among library chemicals, vs DMSO vehicle control (FIG. 1)): largest increase in Sca-1 | enrichment for high Sca-1 expressing, TPC-like cells ([1]; flow cytometry screen of adenocarcinoma cell lines): enriches for high Sca-1 expressing, TPC-like cells | proportion of alveolar organoids ([2]; Sca-1+ve (FIG. 4)): reduces | proportion of small, undifferentiated organoids ([2]; Sca-1+ve (FIG. 4)): increases | organoid formation ([2]; Sca-1−ve sorted cells (FIG. 4)): significantly reduces | Sca-1 expressing cells among stem cell-derived cells (BASC 3D co-culture): many more Sca-1 expressing cells | number of organoids [3]: significantly fewer organoids | alveolar colony formation ([4]; 250 nM (FIG. 5)): reduces | ciliated organoid formation ([4]; 250 nM (FIG. 5)): increase | organoids with visible movement ([4]; 250 nM, vs control cultures): more frequent | organoids with alveolar morphology ([4]; BASC cultures (FIG. 3)): significantly fewer | organoids that resemble the large airways of the lung ([4]; lung stem cell cultures, beating multiciliated, goblet like and P63+ Kertatin 5+ cells): more organoids | H&E staining of Acetylated tubulin positive organoids ([4]; treated cultures): many of the cells are muticiliated | organoids that stained with Acetylated tubulin, a marker of Ciliated cells ([4]; treated cultures vs control): significantly more | alveolar organoid differentiation ([4]; vs DMSO control, *=P<0.05, two tailed independent samples T-test (FIG. 4, FIG. 5)): reduces | ciliated organoid differentiation ([4]; vs DMSO, *=P<0.05, two tailed independent samples T-test (FIG. 5)): increases
